# Measured values published in PubChem BioAssay AID1053202 (The Scripps Research Institute Molecular Screening Center, 2014).
# Calls of active or inactive are those of the source.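 Rule for the calls: active = Ki at or below 10 µM; inactive = Ki above 10 µM.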
# Molecular target: Fibrinogen beta chain (Homo sapiens) (UniProt P02675)
# Test: displacement of Tn6 from fibrin D-dimer/E complex – biochemical, fluorescence polarization, Ki, set 1, late-stage follow-up (AID 1053202)
# Details: Purified DD(E), TRITC-Tn6 peptide displacement, protein 1 µM, probe 0.05 µM
# Fibrinogen beta chain (Homo sapiens), sequence (P02675 whole entry, looked up): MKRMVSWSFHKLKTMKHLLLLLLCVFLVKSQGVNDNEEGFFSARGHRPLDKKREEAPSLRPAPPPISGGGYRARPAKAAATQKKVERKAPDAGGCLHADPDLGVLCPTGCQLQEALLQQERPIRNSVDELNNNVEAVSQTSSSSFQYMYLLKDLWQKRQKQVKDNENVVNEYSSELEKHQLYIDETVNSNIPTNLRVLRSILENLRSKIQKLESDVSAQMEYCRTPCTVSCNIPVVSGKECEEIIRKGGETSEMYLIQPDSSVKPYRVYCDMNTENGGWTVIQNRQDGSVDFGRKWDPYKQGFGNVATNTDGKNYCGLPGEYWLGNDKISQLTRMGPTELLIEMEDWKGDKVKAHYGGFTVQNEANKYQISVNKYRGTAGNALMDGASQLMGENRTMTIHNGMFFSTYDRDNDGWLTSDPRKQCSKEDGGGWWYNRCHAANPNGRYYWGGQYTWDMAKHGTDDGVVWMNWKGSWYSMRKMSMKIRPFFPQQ
row,Ki,SMILES
1,inactive,CCn1c(CSc2nccn2C)nc2cc(C(=O)O)ccc21
2,5.11 µM,CCn1c(CSc2n[nH]c(N)n2)nc2cc(C(=O)O)ccc21
3,2.3 µM,CCn1c(CSc2nnc3ccccn23)nc2cc(C(=O)O)ccc21
4,inactive,CCn1c(CSc2ncn[nH]2)nc2cc(C(=O)O)ccc21
5,3.75 µM,CCn1c(CSc2nnc(-c3ccncc3)n2CCOC)nc2cc(C(=O)O)ccc21
6,inactive,OCCn1c(CSc2nnc(-c3ccc4c(c3)OCO4)o2)nc2ccc(Cl)cc21
7,inactive,CCn1c(CSc2nc3ccccc3[nH]2)nc2cc(C(=O)O)ccc21
8,5.1 µM,CCn1c(CSc2nnc(-c3ccncc3)n2C)nc2cc(C(=O)O)ccc21

# Same assay, conditions: Purified DD(E), TRITC-Tn6 peptide displacement, protein 2 µM, probe 0.1 µM
row,Ki,SMILES
1,inactive,Nc1nnc(SCc2nc3ccccc3[nH]2)s1
2,inactive,CCCCn1c(CSc2nnc(-c3ccco3)n2C)nc2cc(S(N)(=O)=O)ccc21
3,inactive,CCn1c(CSc2ccc(NC(C)=O)cc2)nc2cc(C(=O)O)ccc21
4,inactive,CCCCn1c(CSc2nc3ccccc3[nH]2)nc2cc(S(N)(=O)=O)ccc21
5,1.34 µM,CCCn1c(SCc2nc3cc(C(=O)O)ccc3n2CC)nc2ccccc2c1=O
6,2.3 µM,CCn1c(CSc2nnc(N)s2)nc2cc(F)ccc21
7,inactive,CCn1c(CSc2nc3ccccc3c(=O)n2-c2ccccc2F)nc2cc(C(=O)O)ccc21
8,inactive,C=CCNc1nnc(SCc2nc3cc(S(=O)(=O)N(C)C)ccc3n2CCC)s1
9,inactive,CCn1c(CSc2nnnn2-c2ccccc2)nc2cc(C(=O)O)ccc21
10,5.1 µM,CCn1c(CSc2nccn2C)nc2cc(S(=O)(=O)N3CCCCC3)ccc21
11,inactive,CCn1c(CSc2ncnc3sc(C)c(C)c23)nc2cc(C(=O)O)ccc21
12,inactive,CCn1c(CSc2nnnn2C(C)C)nc2cc(C(=O)O)ccc21
13,2.82 µM,CCn1c(CSc2nnc(Nc3ccccc3F)s2)nc2cc(C(=O)O)ccc21
14,5.1 µM,CCCn1c(SCc2nc3cc(S(=O)(=O)N4CCOCC4)ccc3n2CCC)n[nH]c1=O
15,inactive,CCn1c(CSc2n[nH]c(N)n2)nc2cc(F)ccc21
16,inactive,CCn1c(CSc2n[nH]c(-c3ccccc3)n2)nc2cc(S(=O)(=O)N3CCCCC3)ccc21
17,5.6 µM,CCn1c(CSc2nnc(COc3ccc(OC)cc3)n2-c2ccccc2F)nc2cc(C(=O)O)ccc21
18,inactive,OCCn1c(CSc2nc3ccccc3o2)nc2ccc(Cl)cc21
19,inactive,COc1ccc2nc(SCc3nc4ccc(Cl)cc4n3CCO)[nH]c2c1
20,4.57 µM,CCn1c(CSc2nc3ccccc3s2)nc2cc(C(=O)O)ccc21
21,inactive,CCCCn1c(CSc2nnc(-c3ccccc3F)n2C)nc2cc(S(N)(=O)=O)ccc21
22,inactive,CCn1c(CSc2nc3sc4c(c3c(=O)n2CCOC)CCCC4)nc2cc(C(=O)O)ccc21
23,2.46 µM,CCn1c(CSc2nc(C3CC3)n(-c3ccccc3)n2)nc2cc(S(=O)(=O)N(C)C)ccc21
24,inactive,CCn1c(CSc2nnc(-c3ccoc3C)o2)nc2cc(S(=O)(=O)N(C)C)ccc21
25,inactive,CCCCn1c(CSc2nnc(-c3ccccc3F)n2N)nc2cc(S(N)(=O)=O)ccc21
26,inactive,Nn1cc(-c2ccccc2)nc1SCc1nc2ccc(Cl)cc2n1CCO
27,inactive,C=CCn1c(SCc2nc3ccc(Cl)cc3n2CCO)nnc1-c1ccc(Cl)cc1
28,5.01 µM,CCn1c(CSc2nncn2C)nc2cc(C(=O)O)ccc21
29,inactive,CCCCn1c(CSc2n[nH]c(=O)n2CCC)nc2cc(S(N)(=O)=O)ccc21
